Experimental data: patent publication US20230321185A1, “METHOD FOR TREATMENT OF TYPE-1 DIABETES IN A SUBJECT IN NEED THEREOF” (priority 2021, published 2023)

Tests used:
Type in all cases: in vivo, Balb/c mice
PAX4 = assay: Western blot of pancreatic PAX4; details: normal mice, vs normal control group
Procedure: (§1) Each of the normal (N) (n=20) and diabetic (D) (n=20) groups was divided into four subgroups. The first group (N1 and D1) (n=5) received 6.7 mg/kg intraperitoneally growth hormone for two weeks. The second group (N2 and D2) (n=5) administrated 0.185 mg/kg intraperitoneally magainin II for approximately four weeks. The third group (N3 and D3) (n=5) first received 0.185 mg/kg of magainin II for four weeks, and then 6.7 mg/kg of growth hormone for two weeks. Finally, the fourth group (N4 and D4) (n=5) received only an equal volume of physiological saline instead of these treatments.
(§2) Proteins were extracted in RIPA buffer which are containing Tris-HCl buffer (100 mM, pH 7.5), ethylene diamine tetra acetic acid (EDTA, 10 mM), sodium pyrophosphate (10 mM), sodium fluoride (0.1 mM), sodium orthovanadate (10 mM), phenylmethylsulphonyl fluoride (PMSF, 2 mM), and aprotinin (10 mg/ml). The pancreas extracts were vortexed for 30 min frequently at 4° C. The homogenates were centrifuged at 12,000 rpm for 20 min at 4° C. The supernatants were stored in an −80° C. freezer. Total protein concentration was determined by the Lowry method. […]
(§3) All values are depicted as mean±SEM and considered significant if p<0.05. […] Data were analyzed using GraphPad Prism software and the results of groups were compared with the ANOVA test.

[1] = Fasting blood sugar (FBS) in normal and STZ-induced type 1 diabetic mice; details: STZ-induced type 1 diabetic mice, IP; for mean percentage of FBS changes decreased by: end of treatment, value is a decrease (untreated D4 increased by 49.23%)
Procedure: In a 14-day period, diabetes type 1 was induced in a group of mice via injecting multiple low doses of Streptozotocin (STZ). Also, the other group of mice received an equal volume of citrate buffer (pH 4.5) intraperitoneally (I.P.) in the same procedure that was called the normal group.
as §1
(§4) FBS measurements before the treatment and weekly during the treatment, and glucose tolerance test (GTT) at the end of the treatment were performed. The pancreatic tissue was quickly removed and placed in a cold phosphate buffer saline (PBS). Some of the extracted tissues for additional tests were stored in a freezer (−80° C.) and some were immersed in 4% paraformaldehyde (PFA) for immunohistochemical staining.
Diabetes type 1 was induced in a group of mice via injecting multiple low doses of Streptozotocin (STZ) (40 mg/kg, intraperitoneal) for five consecutive days. The STZ dissolved in the 50 mM sodium citrate buffer (pH 4.5) to a final concentration of 4 mg/ml, immediately prior to injection. Nine days after the last STZ injection, all the mice have their FBS (fasting blood sugar) over 200 mg/dl were considered as type 1 diabetic mice group.
(§5) FBS levels were measured after fasting mice for 6 h (7:00-13:00) with an Accu-Chek glucometer via tail vein. Also in the glucose tolerance test, six hours after the mice were deprived of food (7:00-13:00), the first FBS was measured and after that mouse administrated glucose (2 g/kg bodyweight, intraperitoneally), and then at the indicated time points post-injection, blood glucose levels were measured.
The fasting blood sugars of mice in all diabetic and normal groups were measured before the treatment and weekly during the treatments. At the end of the treatments, the percentage of FBS changes were calculated. The average percentage of FBS alterations in each group was then determined. Finally, the average result of each group was compared and analyzed with other groups by prism software.

[2] = Glucose tolerance test (GTT) at the end of the treatment; details: for effect on blood glucose levels both in FBS and GTT: diabetic mice
Procedure: as §1, §4, §5

P-ERK = assay: Western blot of pancreatic P-ERK; details: normal mice, vs N4 (saline)
Procedure: as §1, §2, §3

P-S6 = assay: Western blot of pancreatic P-S6 (mTOR pathway activity)
Procedure: as §1
(§6) Proteins were extracted in RIPA buffer which are containing Tris-HCl buffer (100 mM, pH 7.5), ethylene diamine tetra acetic acid (EDTA, 10 mM), sodium pyrophosphate (10 mM), sodium fluoride (0.1 mM), sodium orthovanadate (10 mM), phenylmethylsulphonyl fluoride (PMSF, 2 mM), and aprotinin (10 mg/ml). The pancreas extracts were vortexed for 30 min frequently at 4° C. The homogenates were centrifuged at 12,000 rpm for 20 min at 4° C. The supernatants were stored in an −80° C. freezer. Total protein concentration was determined by the Lowry method.
(§7) De-freeze sample was added to loading buffer and dithiothreitol 0.5 M solution, then heated for 5 min at 95° C. Sodium dodecyl sulfate-polyacrylamide gel electrophoresis (SDS PAGE) and then protein transfer to a polyvinylidene difluoride (PVDF) blotting membrane was performed. […] Finally, a result image was developed based on Western Blot-ECL ([…]) Development Protocol.
(§8) All values are depicted as mean±SEM and considered significant if p<0.05. The arbitrary optical density unit was acquired using ImageJ software (version 1.46). Data were analyzed using GraphPad Prism software and the results of groups were compared with the ANOVA test.
The activity of mTOR pathway was appraised by evaluating the changes in ribosomal P-S6 expression. As a downstream factor of the mTOR pathway, results of pancreatic P-S6 expression in all treated diabetic and normal mice were compared with their control groups. Therefore, changes in P-S6 expression proportionally reflects the activity of mTOR pathway. […] Consequently, GH pulsatile secretion and temporally treatment period in this study via transient increase in mTOR activity can induce and enhance anabolic growth during the treatment, such as cell growth, ribosomal biogenesis, and protein synthesis.

[3] = tested on: insulin+ and glucagon+ cells of pancreatic islets; assay: Immunohistochemistry of pancreas sections, insulin+ and glucagon+ cells; details: type 1 diabetic mice
Procedure: as §1
Fixed tissue in 4% paraformaldehyde for 30 min at 4° C., embedded in paraffin and applied to slides. The prepared 6-μm sections were assayed as described previously. The following primary antibodies were used in these assays: rabbit anti-insulin antibody (ab63820) (1/500), mouse anti-glucagon antibody sc-514592 (1/500), mouse anti-vimentin antibody sc-6260 (1/500), rabbit recombinant anti-Ki67 (ab197547) (1/500), rat anti-CD3 antibody (ab11089) (1/500), mouse anti-CD19 antibody (sc-373897) (1/500). […]
as §3

P-STAT5 = assay: Western blot of pancreatic P-STAT5; details: for P-STAT5 expression increase in comparison with control group: diabetic mice, vs D4 (saline); for P-STAT5 expression increase compared with control group: normal mice, vs N4 (saline)
Procedure: as §1, §6, §7, §8

Substance | Pax4 expression increase in comparison with control group (PAX4) [%] | approximate improvement rate of fasting blood sugar in comparison with untreated control diabetic group [1] [%] | mean percentage of FBS changes decreased by [1] [%] | effect on blood glucose levels both in FBS and GTT [2] | blood sugar course in GTT ([2]; normal mice, glucose 2 g/kg IP) | P-ERK expression increase in comparison with control group (P-ERK) | P-S6 expression increase in comparison with control group (P-S6; diabetic mice, vs D4 (saline)) | P-S6 expression increase in comparison with control group (P-S6; normal mice, vs N4 (saline)) | beta cell regeneration [3] | P-STAT5 expression increase in comparison with control group (P-STAT5) | P-STAT5 expression increase compared with control group (P-STAT5)
GH: Human Growth Hormone produced by EXIR under the brand name Exitropin 4 IU (1.3 mg) (Somatropin), lyophilized powder | ~135 | ~57.43 | 8.2 | less attenuating effect | higher than in other normal groups | no significant difference | no significant difference | slight and not significant | effective beta cell regeneration | not statistically significant | slight and non-significant increase
GIGKFLHSAKKFGKAFVGEIMNS (listed as Xenopus laevis) [magainin, cationic, amphipathic, a-helical antimicrobial peptide with twenty-three amino acids, synthesized by Biomatik] | ~125 | ~97.13 | 47.9 | greatest effect on reducing blood sugar |  | no significant difference | no significant difference | slight and not significant | effective beta cell regeneration | not statistically significant | slight and non-significant increase
